Measured values: BigSolDB 2.1

Cc1cc(=O)c(C(=O)N[C@@H](C(=O)N[C@@H]2C(=O)N3C(C(=O)O)=C(CSc4nnnn4C)CS[C@H]23)c2ccc(O)cc2)c[nH]1
solubility (mole fraction)
Settings	278.2 K	283.2 K	288.2 K	293.2 K	298.2 K	303.2 K
in ethanol	0.000445	0.000508	0.000592	0.00069	0.000834	0.00101
in isopropanol	0.000118	0.00015	0.000187	0.000236	0.000297	0.000376
in n-butanol	9.53e-05	0.000115	0.000139	0.000166	0.0002	0.000245
in n-propanol	0.000242	0.00027	0.000305	0.000348	0.000407	0.000479
in water	4.04e-07	4.82e-07	5.8e-07	6.99e-07	8.5e-07	1.04e-06
